The target of one assay is T1, human MRGPRX2 (Homo sapiens, UniProt Q96LB1).
T1 construct: expressed in transfected cells
T1 sequence (Q96LB1 1-330): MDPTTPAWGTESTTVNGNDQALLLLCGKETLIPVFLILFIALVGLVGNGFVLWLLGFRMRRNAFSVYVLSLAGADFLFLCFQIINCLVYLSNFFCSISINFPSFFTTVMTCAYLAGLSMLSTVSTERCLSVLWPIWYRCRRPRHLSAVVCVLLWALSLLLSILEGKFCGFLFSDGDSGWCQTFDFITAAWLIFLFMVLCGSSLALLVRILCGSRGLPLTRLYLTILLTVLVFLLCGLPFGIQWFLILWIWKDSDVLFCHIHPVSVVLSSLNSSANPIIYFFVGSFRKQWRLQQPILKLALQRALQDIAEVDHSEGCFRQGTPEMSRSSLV
Nature of the assay: MRGPRX2 antagonist activity, IP-One HTRF assay in CHO cells expressing human MRGPRX2 versus Cortistatin-14.
Details: not given
The class given is cell-based. The procedure: CHO cells stably transfected to express human MRGPRX2 were maintained in an incubator at 37° C. with 5% CO2 and grown in F12 (HAM) media with 10% fetal bovine serum (FBS), 1% Glutamax, 1% penicillin/streptomycin, 800 μg/mL Geneticin (G418), and 300 μg/mL Hygromycin B. Cells were plated in a 384-well assay plate at 20,000 cells per well in 12 μL of Opti-MEM and kept in an incubator overnight. On the day of the assay, compounds solubilized at 10 mM in DMSO were added as a 10-point curve (30 uM final top concentration with 1:3 serial dilutions) using a Tecan D300E digital dispenser. Agonists were diluted in assay buffer (final concentrations of 5.7 mM Tris-HCl, 43 mM NaCl, 50 mM LiCI, pH=8) and 2 μL of the agonist Cortistatin-14 (CPC Scientific, catalog CORT-002) are added to each well. Final concentrations of agonists were […] Cortistatin-14. Final concentrations of DMSO were kept consistent across the plate. Plates were incubated in the dark for 1 hr at 37° C. and then for 1 hr at room temperature. IP-1 standards and HTRF detection reagents were added according to the IP-One—Gq Kit purchased from Cisbio (part number 621PAPEJ) and incubated in the dark for 1 hr at room temperature. The plate was read on a Molecular Devices SpectraMax iD5 plate reader. The HTRF ratio was calculated from the raw data and graphed using GraphPad Prism to calculate an IC50 value for each compound.
The activity ranges are denoted as follows: “+++++” denotes antagonist activity <100 nM; “++++” denotes antagonist activity between 100 and 500 nM; “+++” denotes activity between 501 and 1000 nM; “++” denotes activity between 1001 and 2500 nM; and “+” denotes activity >2500 nM.
For `Cn1nccc1C(=O)N[C@H]1CC[C@@H](Nc2ccc(C#N)c(C(F)(F)F)c2)CC1` [1-17], the IC50 lay within 100 to 500 nM. Take `CN(c1ccc(C(=O)N[C@H]2CC[C@@H](Nc3ccc(C#N)c(C(F)(F)F)c3)CC2)cc1)S(C)(=O)=O` [1-18]: the IC50 was in the range of 100 to 500 nM.

The assay is the same for the next values; noted with them: CHO cells stably expressing human MRGPRX2; versus 0.3 uM Cortistatin-14 agonist; IP-1 HTRF readout; read-out: MRGPR2 Antagonist Activity.
Turning to `CC(C#N)c1cccc(C(=O)N[C@H]2CC[C@@H](Nc3cc(C(F)(F)F)nc(C(F)(F)F)c3)CC2)c1` (some centres unmarked) [4-11], the IC50 fell in the range of 100 to 500 nM. The same measure, in the same setting: under `Cc1cccc2[nH]cc(C(=O)N[C@H]3CC[C@@H](Nc4ccc(C#N)c(C(F)(F)F)c4)CC3)c12` [4-62] stands under 100 nM. In the case of `CN(C)c1ccc(C(=O)N[C@H]2CC[C@@H](Nc3ccc(C#N)c(C(F)(F)F)c3)CC2)cc1` [1-21], the IC50 was under 100 nM. Same read-out and setting: under `CNc1ccc(C(=O)N[C@H]2CC[C@@H](Nc3ccc(C#N)c(C(F)(F)F)c3)CC2)cc1` [4-47] stands under 100 nM. Consider `O=C(N[C@H]1CC[C@@H](Nc2cc(C(F)(F)F)nc(Nc3ccccc3)n2)CC1)c1ccc(F)cc1` [Example 10, N-(1S,4S)-[4-[[2-anilino-6-(trifluoromethyl)pyrimidin-4-yl]amino}cyclohexyl]-4-fluoro-benzamide], for which the IC50 lay within 1000 to 2500 nM.

Turning to `Nc1nc(C(=O)N[C@H]2CC[C@@H](Nc3cc(C(F)(F)F)nc(C(F)(F)F)c3)CC2)cs1` [4-27], the IC50 lay within 100 to 500 nM. On the same count and under the same terms, the result for `O=C(N[C@H]1CC[C@@H](Nc2cc(C(F)(F)F)nc(C(F)(F)F)c2)CC1)c1ccc2nccn2c1` [4-39] reads 100 to 500 nM; that for `Cc1cc(N[C@H]2CC[C@@H](NC(=O)c3ccnc(NC(C)C)c3)CC2)cc(C(F)(F)F)c1C#N` [5-2], under 100 nM. For `Cc1cc(C(=O)N[C@H]2CC[C@@H](Nc3cc(C)c(C#N)c(C(F)(F)F)c3)CC2)cc(C)n1` [5-1], the IC50 is under 100 nM.

Consider `Cc1cc(N[C@H]2CC[C@@H](NC(=O)c3ccc(N(C)CC(F)F)cc3)CC2)cc(C(F)(F)F)c1C#N` [5-7], for which the IC50 was under 100 nM. The same measure, in the same setting: the result for `CN(C)c1ccc(C(=O)N[C@H]2CC[C@@H](Nc3cc(N(C)C)nc(C(F)(F)F)c3)CC2)cc1` [2-1] reads 1000 to 2500 nM; that for `CN(C)C(=O)N[C@H]1CC[C@@H](Nc2cc(C(F)(F)F)nc(C(F)(F)F)c2)CC1` [4-29], 1000 to 2500 nM; that for `CC(=O)Nc1ccc(C(=O)N[C@H]2CC[C@@H](Nc3ccc(C#N)c(C(F)(F)F)c3)CC2)cc1` [4-48], under 100 nM.

As for `COc1ccc(C(=O)N[C@H]2CC[C@@H](Nc3cc(Nc4cccc(C)c4)nc(C(F)(F)F)c3)CC2)cc1` [Example 9, 4-methoxy-N-[4-[[2-(3-methylanilino)-6-(trifluoromethyl)-4-pyridyl]amino]cyclohexyl]benzamide], the IC50 fell in the range of 1000 to 2500 nM.

On to `CN(C)c1nc(N[C@H]2CC[C@@H](NC(=O)c3cccc(C#N)c3)CC2)cc(C(F)(F)F)n1` [4-18], for which the IC50 is 1000 to 2500 nM.

Take `COc1ccc(C(=O)N[C@@H]2CCC[C@H](Nc3nc(C(F)(F)F)nc4c3CCC4)C2)cc1` [1-6]: the IC50 is 1000 to 2500 nM. Consider `COc1ccc(C(=O)N[C@H]2CC[C@@H](Nc3cc(C(F)(F)F)nc(N(C)C(C)C)n3)CC2)cc1` [3-1], for which the IC50 is 1000 to 2500 nM. Regarding `CCN(C)c1nc(N[C@H]2CC[C@@H](NC(=O)c3ccc(N(C)C)cc3)CC2)cc(C(F)(F)F)n1` [Example 11, 4-(dimethylamino)-N-(1S,4S)-[4-[[2-[ethyl(methyl)amino]-6-(trifluoromethyl)pyrimidin-4-yl]amino]cyclohexyl] benzamide], the IC50 was in the range of 100 to 500 nM. In the case of `Cn1ccc2c(C(=O)N[C@H]3CC[C@@H](Nc4ccc(C#N)c(C(F)(F)F)c4)CC3)ccnc21` [4-61], the IC50 is under 100 nM.

Regarding `COc1cc(N[C@H]2CC[C@@H](NC(=O)c3ccc(F)cc3)CC2)nc(C(F)(F)F)n1` [1-7], the IC50 is 1000 to 2500 nM.

`COc1ccc(C(=O)N[C@H]2CCC[C@@H](Nc3cc(C(F)(F)F)cc(C(F)(F)F)c3)C2)cc1` (stereo in doubt) [example 5, N-((1S,3R)-3-((3,5-bis(trifluoromethyl)phenyl)amino)cyclohexyl)-4-methoxybenzamide]: the IC50 fell in the range of 1000 to 2500 nM.

With `CN(C)c1cccc(C(=O)N[C@H]2CC[C@@H](Nc3ccc(C#N)c(C(F)(F)F)c3)CC2)c1` [1-16], the IC50 lay in the range of 100 to 500 nM.

In the case of `Cc1ccoc1C(=O)N[C@H]1CC[C@@H](Nc2cc(C(F)(F)F)nc(C(F)(F)F)c2)CC1` [1-5], the IC50 was 1000 to 2500 nM.

For the compound `CN(C)c1ccc(C(=O)N[C@H]2CC[C@@H](Nc3cc(C(F)(F)F)nc(N(C)C)n3)CC2)cc1` [4-17], the IC50 lay within 501 to 1000 nM. As to `N#Cc1ccc(N[C@H]2CC[C@@H](NC(=O)c3ccnc4[nH]ncc34)CC2)cc1C(F)(F)F` [4-59], the IC50 is under 100 nM.

With `O=C(N[C@H]1CC[C@@H](Nc2cc(C(F)(F)F)nc(C(F)(F)F)c2)CC1)c1cccc2ncsc12` [4-9], the IC50 was in the range of 100 to 500 nM. As for `Cc1cc2[nH]cnc2cc1C(=O)N[C@H]1CC[C@@H](Nc2cc(C(F)(F)F)nc(C(F)(F)F)c2)CC1` [4-8], the IC50 lay in the range of 100 to 500 nM. Turning to `O=C(N[C@H]1CC[C@@H](Nc2nc(C(F)(F)F)nc3c2CCCC3)CC1)c1ccc(F)cc1` [1-11], the IC50 was in the range of 1000 to 2500 nM. Consider `N#Cc1ccc(N[C@H]2CC[C@@H](NC(=O)c3ccc(F)cc3)CC2)cc1C(F)(F)F` [1-22], for which the IC50 fell in the range of 100 to 500 nM. Same read-out and setting: the result for `N#Cc1ccc(N[C@H]2CC[C@@H](NC(=O)c3ccc4[nH]ncc4c3)CC2)cc1C(F)(F)F` [4-50] reads under 100 nM. Consider `CN(c1ccc(C(=O)N[C@H]2CC[C@@H](Nc3cc(C(F)(F)F)nc(C(F)(F)F)c3)CC2)cc1)S(C)(=O)=O` [4-23], for which the IC50 was in the range of 100 to 500 nM. As to `O=C(N[C@H]1CC[C@@H](Nc2cc(C(F)(F)F)nc(N3CCCC3)n2)CC1)c1ccc(F)cc1` [1-9], the IC50 lay in the range of 1000 to 2500 nM. As to `CNc1cc(C(=O)N[C@H]2CC[C@@H](Nc3cc(C)c(C#N)c(C(F)(F)F)c3)CC2)ccn1` [5-4], the IC50 was under 100 nM. For the compound `O=C(N[C@H]1CC[C@@H](Nc2cc(C(F)(F)F)cc(C(F)(F)F)c2)CC1)c1ccccc1` [Example 13, N-((1S,4S)-4-((3,5-bis(trifluoromethyl)phenyl)amino)cyclohexyl)benzamide], the IC50 was over 2500 nM. As for `N#Cc1ccc(N[C@H]2CC[C@@H](NC(=O)c3cn[nH]c3C(F)(F)F)CC2)cc1C(F)(F)F` [4-44], the IC50 is under 100 nM.

Regarding `CC(C)S(=O)(=O)Nc1ccc(C(=O)N[C@H]2CC[C@@H](Nc3ccc(C#N)c(C(F)(F)F)c3)CC2)cc1` [1-14], the IC50 was under 100 nM. Consider `O=C(N[C@H]1CC[C@@H](Nc2cc(C(F)(F)F)nc(C(F)(F)F)c2)CC1)n1cccc1` [4-2], for which the IC50 fell in the range of 100 to 500 nM.

In the case of `CC(=O)Nc1cccc(C(=O)N[C@H]2CC[C@@H](Nc3cc(C(F)(F)F)nc(C(F)(F)F)c3)CC2)c1` [4-5], the IC50 fell in the range of 100 to 500 nM. Take `N#Cc1ccc(N[C@H]2CC[C@@H](NC(=O)c3ccc4cn[nH]c4c3)CC2)cc1C(F)(F)F` [4-49]: the IC50 was under 100 nM. On the same count and under the same terms, under `Cc1cc(N[C@H]2CC[C@@H](NC(=O)c3ccc(NCC(F)F)cc3)CC2)cc(C(F)(F)F)c1C#N` [5-8] stands under 100 nM.

For the compound `N#Cc1ccc(N[C@H]2CC[C@@H](NC(=O)c3c[nH]c4ncccc34)CC2)cc1C(F)(F)F` [4-57], the IC50 is under 100 nM. Still for that read-out and setting: the result for `O=C(N[C@H]1CC[C@@H](Nc2cc(C(F)(F)F)nc(C(F)(F)F)c2)CC1)c1cc2c([nH]1)CCCC2` [4-37] reads 501 to 1000 nM; that for `COc1ccc(C(=O)N[C@H]2CC[C@@H](Nc3cc(C(F)(F)F)nc(C(F)(F)F)c3)CC2)cc1` [1-3], 100 to 500 nM. The same measure, in the same setting: under `O=C(N[C@H]1CC[C@@H](Nc2cc(Cl)nc(C(F)(F)F)c2)CC1)c1ccc(F)cc1` [Example 7, N-(1S,4S)-[4-[[2-chloro-6-(trifluoromethyl)-4-pyridyl]amino]cyclohexyl]-4-fluoro-benzamide] stands 501 to 1000 nM; under `N#Cc1ccc(C(=O)N[C@H]2CC[C@@H](Nc3cc(C(F)(F)F)nc(C(F)(F)F)c3)CC2)cc1` [4-13], over 2500 nM.

Regarding `N#Cc1ccc(N[C@H]2CC[C@@H](NC(=O)c3c[nH]c4cnccc34)CC2)cc1C(F)(F)F` [4-64], the IC50 is under 100 nM. As for `O=C(N[C@H]1CC[C@@H](Nc2cc(C(F)(F)F)cc(C(F)(F)F)c2)CC1)c1ccc(F)cc1` [Example 6, N-((1S,4S)-4-((3,5-bis(trifluoromethyl)phenyl)amino)cyclohexyl)-4-fluorobenzamide], the IC50 is 1000 to 2500 nM. As to `CN1CCc2c(cccc2C(=O)N[C@H]2CC[C@@H](Nc3cc(C(F)(F)F)nc(C(F)(F)F)c3)CC2)C1` [4-34], the IC50 fell in the range of 1000 to 2500 nM.

For the origin of these results see patent US11952346B2, “Modulators of mas-related G-protein receptor X2 and related products and methods” (Escient Pharmaceuticals, Inc., priority 2020, dated 2024).
